This passage reports cytotoxicity results from ChEMBL document CHEMBL3507680, “University of Dundee, Gates Library screen for HepG2 cell viability”.

This data set can be described thus: Human HepG2 cell viability assay in 384 well format. The data set is classed as toxicity, cell-based. Set-up: dose 125 nL, time 70.5 hour; cytotoxicity at 70.5 h: concentration not given beside the values. The settings on record: HepG2 cells, read-out: Inhibition.

Structures are written as SMILES.

For `CC(C)(C)OC(=O)N1CC(CC(=O)NCc2ccnc(C3CC3)c2)C1`, the cytotoxicity at 70.5 h is -8.99%.
With `Cc1nnc2n1CCN(Cc1c(Cl)ccc3cccnc13)C2`, the cytotoxicity at 70.5 h was 26.2%.
As for `CN(Cc1ccc([S+](C)[O-])cc1)c1ccc(C(F)(F)F)cn1` (centres undefined), the figure is -4.29%; as for `CN(C(=O)c1cccn1C)C1CCC(NC(=O)OC(C)(C)C)CC1` (centres undefined), -9.69%.
As for `O=C(COCc1ccccc1)Nc1ccccn1`, the figure is 0.318%; as for `Cc1ccc2c(c1)C(NCc1ncnn1C)CC2` (centres undefined), -5.24%.
Take `Cn1cnnc1-c1cncc(NCc2cccc3c2OC(C)(C)C3)c1`: the cytotoxicity at 70.5 h was 8.22%.
Take `CCCC(C)(C)NC(=O)c1cnc(C)s1`: the cytotoxicity at 70.5 h stood at 2.45%.
Consider `CCc1ncc(C(=O)NC(C)(C)CC)s1`, for which the cytotoxicity at 70.5 h was -1.24%.
With `N#Cc1ccccc1CNC(C(=O)N1CCOCC1)c1ccccc1` (centres undefined) the figure was -1.56%.
As for `Cc1n[nH]cc1CNC(C(=O)N1CCCCC1)c1ccccc1` (centres undefined), the figure is 3.13%; as for `O=C(C(NCc1cccc(F)c1F)c1ccccc1)N1CCOCC1` (centres undefined), -1.89%; as for `N#Cc1ccc(N2CCN(c3ncccn3)CC2)c(C(F)(F)F)c1`, 8.58%.
As for `COCCSc1ccc(C(C)NC(=O)Nc2cccnc2)cc1` (centres undefined), the figure is -4.37%.
For `c1cnn(CC2CCCN2c2ncnc3c2CCC3)c1` (centres undefined), the cytotoxicity at 70.5 h is 4.07%.
As for `COc1ccc(S(=O)(=O)N2CCn3nc(C)nc3C2)cc1C`, the figure is -5.13%; as for `COc1cccc(-c2csc(Cn3ccc(=O)[nH]c3=O)n2)c1`, 19.5%.
As for `COc1ccc(C)cc1-c1csc(Cn2ccc(=O)[nH]c2=O)n1`, the figure is 2.92%; as for `CCn1c(C)cc(-c2csc(Cn3ccc(=O)[nH]c3=O)n2)c1C`, -4.42%; as for `N#Cc1c[nH]c(C(=O)N(Cc2ccc(O)cc2)CC2CC2)c1`, -2.25%.
As for `NC(=O)c1ccc(C(=O)N(Cc2ccc(O)cc2)CC2CC2)cc1`, the figure is 6.44%; as for `O=c1ccn(Cc2nc(-c3ccccc3F)cs2)c(=O)[nH]1`, 0.45%; as for `NC(=O)NC(=O)CCn1ccc(-c2ccc(F)cc2)n1`, -1.22%.
Consider `CC(C)c1cccc(NC(=O)N2CC(N(C)C)C2)c1`, for which the cytotoxicity at 70.5 h was -0.462%.
With `NC(=O)NC(=O)CCn1ccc(-c2ccccc2)n1` the figure was 16%; with `CN(C)S(=O)(=O)N1CCC(OCCCc2ccccc2)C1` (centres undefined), -0.922%; with `CCS(=O)(=O)N1CCC(OCCCc2ccccc2)C1` (centres undefined), -3.57%.
As for `Cc1cnn(CC2CCCN2c2ncnc3c2CCC3)c1` (centres undefined), the figure is 13.3%.
With `O=C(C1CCN(c2ccnc3ccc(Br)cc23)CC1)N1CCOCC1` the figure was 8.35%.
With `Cc1csc(N2CCCN(C(=O)c3ccsc3)CC2)n1`, the cytotoxicity at 70.5 h was -12%.
As for `CCn1cnnc1CNC(=O)C1CCCN(Cc2cccc(F)c2)C1` (centres undefined), the figure is -14.4%.
With `CC(C)CNC(=O)c1ccc(NC(=O)NC2CC2)cc1Cl` the figure was -12.8%; with `Cn1ccnc1CCNC(=O)C1CCCN(Cc2cccc(F)c2)C1` (centres undefined), -7.53%.
For the molecule `CC(C)C(C)(C#N)NC(=O)Cn1nnc(-c2cc3ccccc3o2)n1` (centres undefined), the cytotoxicity at 70.5 h was determined as 18.2%.
As for `O=C(NS(=O)(=O)Cc1ccon1)c1ccsc1`, the figure is -3.39%; as for `Cc1nsc(N2CCN(C(=O)Nc3ccc4[nH]ccc4c3)CC2)n1`, 1.81%; as for `CN1CCOC(C(=O)Nc2ccc3[nH]nnc3c2)C1` (centres undefined), -3.75%.
As for `CC(NC(=O)N1CCSC(C)(C)C1)c1noc(-c2ccccc2)n1` (centres undefined), the figure is -0.307%; as for `COc1ccccc1CC(=O)NCc1ccnc(NC2CC2)c1`, -0.149%.
With `CCSc1cncc(NCc2ccc(N3CCNC(=O)C3)cc2)n1` the figure was 3.68%; with `CCOCCC(=O)NCc1ccnc(NC2CC2)c1`, -3.85%; with `CCC(C)(C)NC(=O)c1ccc(-c2ccco2)[nH]c1=O`, 0.821%.
As for `CN1CCOC(C(=O)Nc2ccc3c(c2)nc(C2CC2)n3C)C1` (centres undefined), the cytotoxicity at 70.5 h was -3.17%.
With `Cc1ccc(C)c(CN(C)Cc2nnc3ccccn23)c1` the figure was 14.1%; with `Cc1nsc(N2CCCN(C(=O)c3ccc4[nH]ccc4c3)CC2)n1`, -3.86%; with `CC(Cn1cccn1)NS(=O)(=O)Cc1ccc(F)cc1` (centres undefined), 5.43%.
With `Cc1ccc(O)c(C(=O)N2CCC(CN3CCCCCC3)CC2)c1` the figure was -6.42%.
With `CC(C)C(C)N1Cc2cccc(NCC(=O)N(C)C)c2C1` (centres undefined) the figure was -8.25%.
`Cn1ccc(CN2CCCN(c3nccs3)CC2)cc1=O`: the cytotoxicity at 70.5 h was -1.81%.
As for `Cc1csc(N2CCCN(Cc3ccn(C)c(=O)c3)CC2)n1`, the figure is -3.93%; as for `COC(=O)c1cccc(S(=O)(=O)NC(=O)c2cccc(OC)c2OC)c1`, -6.86%.
`Cc1occc1C(=O)Nc1cc(N2CCNC2=O)ccc1Cl`: the cytotoxicity at 70.5 h amounted to 6.66%.
As for `Cc1nc(CNC(=O)C(C)(C)c2ccc(F)cc2)no1`, the figure is 0.937%; as for `COc1ccc(-c2nc(CC(=O)N(C)CCC#N)cs2)cc1OC`, 5.07%.
With `CCC(=O)N1CCCN(C(=O)c2cc(C)cc(Br)c2O)CC1` the figure was -1.86%.
With `CC(=O)NC1CCN(c2ccc(C#N)cc2C(F)(F)F)CC1` the figure was -1.95%; with `COCC(NC(=O)NCc1sc(C)nc1C)c1ccco1` (centres undefined), 7.86%.
`Cc1noc2ncc(S(=O)(=O)Nc3cc(CC(C)(C)C)[nH]n3)cc12`: the cytotoxicity at 70.5 h came out at 3.8%.
With `CC(C)N1Cc2cccc(NCC(=O)N(C)C)c2C1` the figure was -2.57%; with `CCC[C@@H](NC(N)=O)C(=O)N1CCc2c(Cl)cccc2C1`, -2.76%; with `CC(C)N1Cc2cccc(NCC(=O)N(C)C3CCCCC3)c2C1`, -0.0699%.
As for `CC(C)CCC(C)NC(=O)Nc1ccccn1` (centres undefined), the figure is -2.67%; as for `CSc1ccc(OC(C)C(=O)Nc2cc(C)n[nH]2)cc1` (centres undefined), -1.12%; as for `OC(CN1CCCCc2ccccc21)Cn1cccn1` (centres undefined), 1.14%.
As for `CN1CCOC(C(=O)N2CCC3(CCCCC3)C2)C1` (centres undefined), the figure is -5.38%.
Consider `CN1CCOC(C(=O)N2CCOC3(CCCC3)C2)C1` (centres undefined), for which the cytotoxicity at 70.5 h is -1.85%.
As for `COCCN(C(=O)c1cc(-c2ccc(C)s2)[nH]n1)C1CC1`, the figure is -3.98%.
As for `NC(=O)CN(C(=O)Cc1ccc(C(F)(F)F)cc1)C1CCCC1`, the figure is -7.24%; as for `CC(C)C(C(=O)NCc1ccccc1-n1cccn1)N(C)C` (centres undefined), -7.79%.
With `N#Cc1c(Cl)nsc1NCC1(c2ccccc2)CCC1` the figure was 17.1%; with `NC(=O)CN(C(=O)Cc1cccc(C(F)(F)F)c1)C1CCCC1`, -2.84%; with `CS(=O)(=O)c1nnc(NC(=O)CCc2cccc(Cl)c2)[nH]1`, -7.49%.
As for `Cc1n[nH]cc1CNC(C)c1cccc(N2CCCC2=O)c1` (centres undefined), the cytotoxicity at 70.5 h was 14.3%.
With `CNCc1nc(-c2ccc3c(c2)OCO3)c[nH]1` the figure was -13.6%.
